According to paper PMC7381729, “A new class of PentixaFor- and PentixaTher-based theranostic agents with enhanced CXCR4-targeting efficiency” (Theranostics, 2020):
Read-outs that look alike come from different tables or passages of the source. Where a SMILES comes first, the peptide text is derived from it. Side-chain parts run from the residue outwards. [ ]: non-standard residue; d: D form. The star is where a group is joined. DOTA = O=C(O)CN1CCN(CC(=O)O)CCN(CC(=O)*)CCN(CC(=O)O)CC1; 2Nal = N[C@@H](Cc1ccc2ccccc2c1)C(=O)O; dNMeOrn = CN[C@H](CCCN)C(=O)O; 4Abz = Nc1ccc(C(=O)O)cc1

Test: Biodistribution in Daudi xenograft bearing mice
Assay type: in vivo, mouse
Settings: female, CB-17 SCID, mouse, iv, total radioactivity; for tissue uptake at 6 h: 6h p.i.; for tissue uptake at 6 h / tissue uptake at 48 h: i.v., n=4-5; for tissue uptake at 6 h / tissue uptake at 48 h / tissue to tissue ratio at 48 h: means ± SD; for tissue uptake at 48 h / tissue to tissue ratio at 48 h: 48h p.i.; for tissue uptake at 1 h: 1h p.i., coinjection of 50 µg AMD3100/animal, n=1; for tissue to tissue ratio at 48 h: n=4-5 animals
Method in brief: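 Female CB-17 SCID mice with Daudi xenografts (n=4-5) received 5-10 MBq (0.08-0.11 nmol) ^68Ga- or ^177Lu-labelled ligand i.v.; blocking by coinjected 50 µg AMD3100. Organs counted by γ-counter at 1, 6 and 48 h p.i.; %ID/g (mean ± SD).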

[1] = adrenals, read-out: Biodistribution adrenals
[2] = blood, read-out: Biodistribution blood
[3] = colon, read-out: Biodistribution colon
[4] = femur, read-out: Biodistribution femur
[5] = heart, read-out: Biodistribution heart
[6] = kidney, read-out: Biodistribution kidney
[7] = liver, read-out: Biodistribution liver
[8] = lung, read-out: Biodistribution lung
[9] = muscle, read-out: Biodistribution muscle
[10] = pancreas, read-out: Biodistribution pancreas
[11] = small intestine, read-out: Biodistribution small intestine
[12] = spleen, read-out: Biodistribution spleen
[13] = stomach, read-out: Biodistribution stomach
[14] = tumor (Daudi xenograft), read-out: Biodistribution tumor (Daudi xenograft)

With `C[C@@H](NC(=O)[C@@H](CCCNC(=N)N)NC(=O)CN1CCN(CC(=O)O)CCN(CC(=O)O)CCN(CC(=O)O)CC1)C(=O)Nc1ccc(C(=O)NCCC[C@@H]2C(=O)N[C@@H](CCCNC(=N)N)C(=O)N[C@@H](Cc3ccc4ccccc4c3)C(=O)NCC(=O)N[C@H](Cc3ccc(O)cc3)C(=O)N2C)cc1` [[^177Lu]DOTA-r-a-ABA-CPCR4, metal not drawn] (cyclo([2Nal]G[dY][dNMeOrn]([4Abz-dA-dR-DOTA])R)) the tissue uptake at 6 h [1] was 0.51 ± 0.12 %ID/g, the tissue uptake at 48 h [1] was 0.33 ± 0.08 %ID/g and the tissue uptake at 1 h (adrenals, with AMD3100, 50 µg per animal, coinjected (CXCR4 competition), read-out: Biodistribution adrenals, + AMD3100) was 1.22 %ID/g. For the same molecule, the tissue uptake at 6 h [2] was 0.05 ± 0.01 %ID/g, the tissue uptake at 48 h [2] was 0.01 %ID/g and the tissue uptake at 1 h (blood, with AMD3100, 50 µg per animal, coinjected (CXCR4 competition), read-out: Biodistribution blood, + AMD3100) was 1.9 %ID/g. The tissue uptake at 6 h [3] was 0.65 ± 0.3 %ID/g, the tissue uptake at 48 h [3] was 0.44 ± 0.22 %ID/g and the tissue uptake at 1 h (colon, with AMD3100, 50 µg per animal, coinjected (CXCR4 competition), read-out: Biodistribution colon, + AMD3100) was 0.74 %ID/g. For the same molecule, the tissue uptake at 6 h [4] was 0.3 ± 0.05 %ID/g, the tissue uptake at 48 h [4] was 0.29 ± 0.05 %ID/g and the tissue uptake at 1 h (femur, with AMD3100, 50 µg per animal, coinjected (CXCR4 competition), read-out: Biodistribution femur, + AMD3100) was 0.74 %ID/g. The tissue uptake at 1 h (heart, read-out: Biodistribution heart, + AMD3100) was 1.07 %ID/g, the tissue uptake at 6 h [5] was 0.13 ± 0.02 %ID/g and the tissue uptake at 48 h [5] was 0.08 ± 0.01 %ID/g. The tissue uptake at 6 h [6] was 7.1 ± 2.06 %ID/g, the tissue uptake at 48 h [6] was 3.05 ± 0.15 %ID/g and the tissue uptake at 1 h (kidney, with AMD3100, 50 µg per animal, coinjected (CXCR4 competition), read-out: Biodistribution kidney, + AMD3100) was 10.3 %ID/g. It also gave a tissue uptake at 1 h (liver, read-out: Biodistribution liver, + AMD3100) of 5.46 %ID/g, a tissue uptake at 6 h [7] of 11.3 ± 2.83 %ID/g and a tissue uptake at 48 h [7] of 8.99 ± 1.62 %ID/g. For the same molecule, the tissue uptake at 1 h (lung, read-out: Biodistribution lung, + AMD3100) was 3.34 %ID/g, the tissue uptake at 6 h [8] was 0.27 ± 0.06 %ID/g and the tissue uptake at 48 h [8] was 0.19 ± 0.08 %ID/g. For the same molecule, the tissue uptake at 6 h [9] was 0.04 ± 0.01 %ID/g, the tissue uptake at 48 h [9] was 0.02 %ID/g and the tissue uptake at 1 h (muscle, with AMD3100, 50 µg per animal, coinjected (CXCR4 competition), read-out: Biodistribution muscle, + AMD3100) was 0.38 %ID/g. The tissue uptake at 6 h [10] was 0.08 ± 0.02 %ID/g, the tissue uptake at 48 h [10] was 0.07 ± 0.01 %ID/g and the tissue uptake at 1 h (pancreas, with AMD3100, 50 µg per animal, coinjected (CXCR4 competition), read-out: Biodistribution pancreas, + AMD3100) was 0.61 %ID/g. It also gave a tissue uptake at 6 h [11] of 0.3 ± 0.06 %ID/g, a tissue uptake at 48 h [11] of 0.16 ± 0.11 %ID/g and a tissue uptake at 1 h (small intestine, with AMD3100, 50 µg per animal, coinjected (CXCR4 competition), read-out: Biodistribution small intestine, + AMD3100) of 1.36 %ID/g. The tissue uptake at 6 h [12] was 1.41 ± 0.24 %ID/g, the tissue uptake at 48 h [12] was 1.06 ± 0.33 %ID/g and the tissue uptake at 1 h (spleen, with AMD3100, 50 µg per animal, coinjected (CXCR4 competition), read-out: Biodistribution spleen, + AMD3100) was 1.11 %ID/g. It also gave a tissue uptake at 6 h [13] of 0.25 ± 0.07 %ID/g, a tissue uptake at 48 h [13] of 0.19 ± 0.13 %ID/g and a tissue uptake at 1 h (stomach, with AMD3100, 50 µg per animal, coinjected (CXCR4 competition), read-out: Biodistribution stomach, + AMD3100) of 2.46 %ID/g. It also gave a tissue uptake at 6 h [14] of 13.6 ± 3.33 %ID/g, a tissue uptake at 48 h [14] of 8.81 ± 0.99 %ID/g and a tissue uptake at 1 h (tumor (Daudi xenograft), with AMD3100, 50 µg per animal, coinjected (CXCR4 competition), read-out: Biodistribution tumor, + AMD3100) of 3.04 %ID/g. For the same molecule, the tissue to tissue ratio at 48 h (tumor / blood, read-out: Tumor/organ ratio t/blood) was 949 ± 146, the tissue to tissue ratio at 48 h (tumor / colon, read-out: Tumor/organ ratio t/colon) was 20 ± 10 and the tissue to tissue ratio at 48 h (tumor / heart, read-out: Tumor/organ ratio t/heart) was 111 ± 20. It also gave a tissue to tissue ratio at 48 h (tumor / kidney, read-out: Tumor/organ ratio t/kidney) of 2.9 ± 0.4, a tissue to tissue ratio at 48 h (tumor / liver, read-out: Tumor/organ ratio t/liver) of 1 ± 0.2 and a tissue to tissue ratio at 48 h (tumor / lung, read-out: Tumor/organ ratio t/lung) of 47 ± 22. The tissue to tissue ratio at 48 h (tumor / muscle, read-out: Tumor/organ ratio t/muscle) was 413 ± 100, the tissue to tissue ratio at 48 h (tumor / small intestine, read-out: Tumor/organ ratio t/small intestine) was 55 ± 36 and the tissue to tissue ratio at 48 h (tumor / spleen, read-out: Tumor/organ ratio t/spleen) was 8.3 ± 2.8. It also gave a tissue to tissue ratio at 48 h (tumor / stomach, read-out: Tumor/organ ratio t/stomach) of 46 ± 32.
